Laboratory results: patent US11497813B2, “Bortezomib conjugates and methods using same” (Frank EBETINO et al., priority 2015, dated 2022)

What was measured:
UPS activation = experiment: Ub^G76V-GFP reporter cells (GFP+ cells) in osteoclast cultures and on pre-incubated bone slices; type: cell-based, mouse; settings: for GFP+ cells on pre-incubated bone slices: BM cells from Ub^G76V-GFP mice on bone slices pre-incubated with compound
Procedure: (§1) FIG. 5A is a scheme of an exemplary synthesis of compound BP-Btz1. FIG. 5B is a series of images of bone slices pre-incubated with 1 μM BP-Btz1, Btz, or bisphosphonate (BP) overnight. Drug solutions were removed and bone slices were washed with PBS extensively. […] (BM) cells from UB^G76V-GFP mice were cultured on bone slices in the presence of M-CSF and RANKL for 9 days. Top images (a): GFP^+ cells were observed under a fluorescence microscope and GFP signal intensity was quantified. Middle images (b): bone slices were fixed and subjected to TRAP staining for osteoclasts (OCs). OC #/slice were counted. Bottom images (c): cells were removed from slices. Toluidine blue staining was performed and pit areas/slice were counted. FIG. 5C is a series of images of murine BM cells cultured and stained for ALP. FIG. 5D is a series of images of human MSCs cultured and stained for ALP. Murine BM cells and human MSCs were cultured in the OB-inducing medium plus different concentrations of BP-Btz1 or Btz for 4 or 6 days, respectively. Cells were stained for ALP. The ALP^+ areas were measured by Image J. *P<0.05 vs. Btz-treated cells.
1. Ub^G76V-GFP mice in B6 background (Stock #008111, Jax lab) are generated using previously described methods (Lindsten et al., 2003, Nat. Biotech. 21:897-902). The Ub^G76V-GFP transgene was designed with a chicken beta-actin promoter and CMV immediate early enhancer upstream of a GFP fused to a mutant ubiquitin moiety (Ub^G76V), a constitutively active proteasome degradation signal. Following proteasome inhibitor administration, Ub^G76V accumulates and GFP fluorescence is readily apparent. GFP^+ OCs were detected at 4 and 8 hrs after adding Btz to OC cultures, which disappeared at 24 hrs. […] 2. OC formation and resorption assays and data analyses are performed as described herein (FIG. 4) and using previously described methods (Zhang et al., 2014, J. Clin. Invest. 124:3200-3214; Xiu et al., 2014, J. Clin. Invest. 124:297-310). […] The number and area of OCs and resorption pits are assessed. The appearance, intensity and distribution of GFP^+ cells on bone slices and plastic surrounding bone slices during OC formation is observed and recorded. 3. OB differentiation. Third passages of BM stromal cells are used as MPCs, as previously described (Shu et al., 2013, J. Bone Min. Res. 28:1925-1935; Zhang et al., 2014, J. Clin. Invest. 124:3200-3214). MPCs are cultured on plastic plates in OB-inducing medium±BP-Btz conjugates, Btz or BP (0.1-100 nM) for 1-3 wks. Plates are subjected to alkaline phosphatase (ALP) and alizarin red staining, and qPCR analyses. Area of ALP^+ and mineralized bone nodule, and the expression levels of OB marker genes (ALP, osteocalcin, Runx2) are measured. GFP^+ cells during OB differentiation are observed as in OCs. In a parallel experiment, human MSCs (from Lonza) are treated with BP-Btz, Btz, or BP in OB-inducing medium and their effects examined on OB differentiation as show in FIGS. 5C and 5D. 4. Western blot/Ub assays. OCPs or MPCs are treated with a preferred dose of leading BP-Btz, Btz and BP. OCP lysates are subjected to Western blot using α-NF-κB members and TRAF6 Abs. OB lysates are subjected to Western blot with α-ubiquitin, Runx2, or JunB Abs, and Ub assays using UbiQapture matrix (Biomol) to pull down Ub-proteins followed by α-Runx2 and JunB Abs using previously described methods (Zhao et al., 2010, J. Bone Min. Res. 25:1246-1256; Zhao et al., 2011, Stem cells 29:1601-1610).

mouse MPCs = experiment: Osteoblast differentiation of mouse MPCs (ALP staining); type: cell-based
Procedure: as §1, with “FIG. 5C is a series of images of murine BM cells cultured and stained for ALP. FIG. 5D is a series of images of human MSCs cultured and stained for ALP. Murine BM cells and human MSCs were cultured in the OB-inducing medium plus different concentrations of BP-Btz1 or Btz for 4 or 6 days, respectively. Cells were stained for ALP.” left out
MPCs are cultured in the OB differentiation medium plus or minus Btz, BT-Btz1 or BT-Btz2 (0.1, 0.5, 1, 5, 10 μM) for 1 to 3 weeks. […] The area of ALP+ and mineralized bone nodule is assessed. The expression levels of OB marker genes (ALP, osteocalcin, Runx2) is measured.
1. […] Following proteasome inhibitor administration, Ub^G76V accumulates and GFP fluorescence is readily apparent. GFP^+ OCs were detected at 4 and 8 hrs after adding Btz to OC cultures, which disappeared at 24 hrs. […] The number and area of OCs and resorption pits are assessed. […]

human MPCs = experiment: Osteoblast differentiation of human MPCs/MSCs (ALP staining); type: cell-based
Procedure: as §1, with “FIG. 5C is a series of images of murine BM cells cultured and stained for ALP. FIG. 5D is a series of images of human MSCs cultured and stained for ALP. Murine BM cells and human MSCs were cultured in the OB-inducing medium plus different concentrations of BP-Btz1 or Btz for 4 or 6 days, respectively. Cells were stained for ALP.” left out
1. […] Following proteasome inhibitor administration, Ub^G76V accumulates and GFP fluorescence is readily apparent. GFP^+ OCs were detected at 4 and 8 hrs after adding Btz to OC cultures, which disappeared at 24 hrs. […] The number and area of OCs and resorption pits are assessed. The appearance, intensity and distribution of GFP^+ cells on bone slices and plastic surrounding bone slices during OC formation is observed and recorded. […] Area of ALP^+ and mineralized bone nodule, and the expression levels of OB marker genes (ALP, osteocalcin, Runx2) are measured. […]

[1] = system: bone resorption and formation; experiment: In vivo dose-response experiments on bone resorption and formation
Description: In vitro testing is also used to examine analogues of BP-Btz1.

WT mice = experiment: Bone volume and osteoblast differentiation in WT mice; type: in vivo, mouse
C57/B6 mice = experiment: Systemic toxicity in C57/B6 mice, daily treatment for 3 weeks; type: in vivo
Procedure: C57/B6 mice, 7 w, BP or Btz (0.6 mg/kg), BP-Btz (1.2 mg/k), daily for 3 weeks. FIG. 29A depicts the groups and treatment used in the experimental examples. FIG. 29B depicts a table of experimental data of body weight before and after treatment. […] FIG. 29D depicts experimental data of bone marrow.

thymus = settings: mice, cited from earlier work

| SMILES | GFP+ cells on pre-incubated bone slices (UPS activation) | osteoblast differentiation (mouse MPCs) | osteoblast differentiation (human MPCs) | bone resorption [1] | bone formation ([1]; compared with Btz alone) | bone volume (WT mice; WT mice, FIG. 17) | osteoblast differentiation (WT mice; WT mice, FIG. 17) | B cell numbers in bone marrow (C57/B6 mice; C57/B6 mice, 7 w, daily for 3 weeks) | systemic toxicity (C57/B6 mice; C57/B6 mice, daily for 3 weeks, compared with Btz) | toxic effect on neurons (dorsal root ganglia) (C57/B6 mice; EM images of dorsal root ganglia) | GFP+ OCs after adding compound to OC cultures (UPS activation; 4 and 8 hrs) | GFP+ OCs after adding compound to OC cultures (UPS activation; 24 hrs) | bone volume (WT mice; 3-m-old mice, 0.6 mg/kg/i.p. at day 1, 3, 5, read at day 10) | splenocytes numbers (thymus; Btz injection) | total and CD4+ and CD8+ thymocyte numbers (thymus; Btz injection) | number of T cells in the thymus (thymus; as early as 3 days after administration) |
| --- | --- | --- | --- | --- | --- | --- | --- | --- | --- | --- | --- | --- | --- | --- | --- | --- |
| CC(C)C[C@H](NC(=O)[C@H](Cc1ccccc1)NC(=O)c1cnccn1)B1OCCN(CCOC(=O)NC(P(=O)(O)O)P(=O)(O)O)CCO1 [BP-Btz1] | present | stimulates osteoblast differentiation | stimulates osteoblast differentiation | inhibits bone resorption | stimulates formation at doses lower than effective doses of Btz alone | increases bone volume | increases | reduces B cell numbers | less systemic toxicity than Btz | prevents toxic effect on neurons | – | – | – | – | – | – |
| CC(C)C[C@H](NC(=O)[C@H](Cc1ccccc1)NC(=O)c1cnccn1)B(O)O [Btz, [(1R)-3-methyl-1-[[(2S)-1-oxo-3-phenyl-2[(pyrazinylcarbonyl)amino]propyl]amino]butyl] boronic acid] | not | – | – | – | – | – | – | – | – | – | detected | disappeared | increased bone volume | not | markedly decreases | significantly reduces |
